In patent US20250275959A1, “COMPOUNDS AND METHODS OF THEIR USE” (LEXICON PHARMACEUTICALS, INC., priority 2024, published 2025):

Tests used:
hACSL5 [1] = molecular target: T1, hACSL5 (Homo sapiens (Human), UniProt Q9ULC5); experiment: Cell-based assay (CBA) with B12FA in hACSL5-transfected Expi293F / FlpIn TRex293 cells; settings: hACSL5-expressing cells
Summary of the method: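 hACSL5-expressing Expi293F or tetracycline-induced FlpIn TRex293 cells, serum- and glucose-starved 1 h, then treated 3 h with serially diluted compound plus 20 µM B12FA. After fixation, 630/520 nm emission ratio (ex 485 nm) gave % inhibition versus no-inhibitor and 10 µM compound/non-induced controls; IC50 by Hill fit.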
Target sequence in this assay (Q9ULC5 whole entry): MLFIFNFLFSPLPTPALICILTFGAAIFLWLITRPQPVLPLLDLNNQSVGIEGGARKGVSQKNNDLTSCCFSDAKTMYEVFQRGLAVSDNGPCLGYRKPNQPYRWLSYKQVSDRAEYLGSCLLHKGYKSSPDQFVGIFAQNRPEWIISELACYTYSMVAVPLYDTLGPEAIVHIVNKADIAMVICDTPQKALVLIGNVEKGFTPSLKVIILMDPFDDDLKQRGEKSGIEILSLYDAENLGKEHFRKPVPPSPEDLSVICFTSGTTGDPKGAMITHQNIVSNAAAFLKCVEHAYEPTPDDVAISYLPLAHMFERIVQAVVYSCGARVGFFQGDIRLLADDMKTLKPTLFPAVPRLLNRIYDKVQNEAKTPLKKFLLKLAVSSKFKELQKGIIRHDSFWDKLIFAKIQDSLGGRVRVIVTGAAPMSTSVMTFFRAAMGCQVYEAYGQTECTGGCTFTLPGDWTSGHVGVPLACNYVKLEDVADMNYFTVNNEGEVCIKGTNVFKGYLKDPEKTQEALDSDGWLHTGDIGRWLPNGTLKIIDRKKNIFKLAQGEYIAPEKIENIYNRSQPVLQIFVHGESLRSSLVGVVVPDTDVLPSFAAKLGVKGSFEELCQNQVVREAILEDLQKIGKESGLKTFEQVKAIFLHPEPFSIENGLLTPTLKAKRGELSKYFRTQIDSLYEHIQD

hACSL5 [2] = molecular target: T1, hACSL5; experiment: Human ACSL5 coupled enzyme Amplex Red assay; format: biochemical; settings: read-out: hACSL5 IC50
Summary of the method: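 Amplex Red coupled readout: 1 mM ATP, 25 μM oleate and 30 μM CoA were added to compound-preincubated enzyme (20 nM, residues 33-683, insect-cell expressed, His-tagged) with coupling peroxidase and acyl-CoA oxidase at pH 7.6. Signal was read at 535/590 nm after 10 minutes at 25° C., and Hill fits yielded half-maximal and maximal inhibition.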
Target sequence in this assay (Q9ULC5 33-683): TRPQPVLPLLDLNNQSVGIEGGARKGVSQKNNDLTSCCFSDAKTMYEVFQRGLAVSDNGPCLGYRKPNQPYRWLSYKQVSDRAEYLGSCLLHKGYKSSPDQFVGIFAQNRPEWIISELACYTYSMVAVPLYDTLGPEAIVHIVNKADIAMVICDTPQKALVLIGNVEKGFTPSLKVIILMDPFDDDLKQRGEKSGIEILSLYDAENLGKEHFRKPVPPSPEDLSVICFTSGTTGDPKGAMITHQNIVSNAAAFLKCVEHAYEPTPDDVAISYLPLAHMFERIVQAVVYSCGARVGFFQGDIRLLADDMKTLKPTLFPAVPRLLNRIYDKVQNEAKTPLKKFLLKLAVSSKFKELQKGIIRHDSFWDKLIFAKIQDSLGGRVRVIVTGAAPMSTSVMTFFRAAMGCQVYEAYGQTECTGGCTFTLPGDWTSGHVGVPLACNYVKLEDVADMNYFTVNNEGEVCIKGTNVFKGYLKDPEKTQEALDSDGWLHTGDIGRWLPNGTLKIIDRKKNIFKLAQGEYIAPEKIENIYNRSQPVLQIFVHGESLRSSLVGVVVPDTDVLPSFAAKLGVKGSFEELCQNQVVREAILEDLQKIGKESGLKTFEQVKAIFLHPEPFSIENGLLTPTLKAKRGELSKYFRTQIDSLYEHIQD

Compound: CC[C@@H](Oc1ccc(C(=O)NS(=O)(=O)c2ccc(OCCN3CCCC3)nc2)c(F)c1F)c1ccc(OCC2CC2)cn1 [(R)-4-(1-(5-(cyclopropylmethoxy)pyridin-2-yl)propoxy)-2,3-difluoro-N-((6-(2-(pyrrolidin-1-yl)ethoxy)pyridin-3-yl)sulfonyl)benzamide]
- IC50 (hACSL5 [1]): 100 to 500 nM
- IC50 (hACSL5 [2]): < 100 nM

Compound: CC[C@@H](Oc1ccc(C(=O)NS(=O)(=O)c2ccc(NC3CCN(C(C)C)CC3)nc2)c(F)c1F)c1ccc(OCC2CC2)cn1 [(R)-4-(1-(5-(cyclopropylmethoxy)pyridin-2-yl)propoxy)-2,3-difluoro-N-((6-((1-isopropylpiperidin-4-yl)amino)pyridin-3-yl)sulfonyl)benzamide]
- IC50 (hACSL5 [1]): > 500 nM
- IC50 (hACSL5 [2]): < 100 nM

Compound: CC[C@@H](Oc1ccc(C(=O)NS(=O)(=O)c2ccc(OC3CCN(C(C)C)CC3)nc2)c(F)c1F)c1ccc(OCC2CC2)cn1 [(R)-4-(1-(5-(cyclopropylmethoxy)pyridin-2-yl)propoxy)-2,3-difluoro-N-((6-((1-isopropylpiperidin-4-yl)oxy)pyridin-3-yl)sulfonyl)benzamide]
- IC50 (hACSL5 [1]): 100 to 500 nM
- IC50 (hACSL5 [2]): < 100 nM

Compound: CC[C@@H](Oc1ccc(C(=O)NS(=O)(=O)c2ccc(NC3CCN(C)CC3)nc2)c(F)c1F)c1ccc(OCC2CC2)cn1 [(R)-4-(1-(5-(cyclopropylmethoxy)pyridin-2-yl)propoxy)-2,3-difluoro-N-((6-((1-methylpiperidin-4-yl)amino)pyridin-3-yl)sulfonyl)benzamide]
- IC50 (hACSL5 [1]): > 500 nM
- IC50 (hACSL5 [2]): < 100 nM

Compound: CC[C@@H](Oc1ccc(C(=O)NS(=O)(=O)N2CC3(CC(OC4CCN(C)CC4)C3)C2)c(F)c1F)c1ccc(OCC2CC2)cn1 [(R)-4-(1-(5-(cyclopropylmethoxy)pyridin-2-yl)propoxy)-2,3-difluoro-N-((6-((1-methylpiperidin-4-yl)oxy)-2-azaspiro[3.3]heptan-2-yl)sulfonyl)benzamide]
- IC50 (hACSL5 [1]): > 500 nM
- IC50 (hACSL5 [2]): 100 to 500 nM

Compound: CC[C@@H](Oc1ccc(C(=O)NS(=O)(=O)c2ccc(OC3CCN(C)CC3)nn2)c(F)c1F)c1ccc(OCC2CC2)cn1 [(R)-4-(1-(5-(cyclopropylmethoxy)pyridin-2-yl)propoxy)-2,3-difluoro-N-((6-((1-methylpiperidin-4-yl)oxy)pyridazin-3-yl)sulfonyl)benzamide]
- IC50 (hACSL5 [1]): > 500 nM
- IC50 (hACSL5 [2]): < 100 nM

Compound: CC[C@@H](Oc1ccc(C(=O)NS(=O)(=O)c2ccc(OC3CCN(C)CC3)nc2)c(F)c1F)c1ccc(OCC2CC2)cn1 [(R)-4-(1-(5-(cyclopropylmethoxy)pyridin-2-yl)propoxy)-2,3-difluoro-N-((6-((1-methylpiperidin-4-yl)oxy)pyridin-3-yl)sulfonyl)benzamide]
- IC50 (hACSL5 [1]): 100 to 500 nM
- IC50 (hACSL5 [2]): < 100 nM

Compound: CC[C@@H](Oc1ccc(C(=O)NS(=O)(=O)c2ccc(NCCN3CCCC3)nc2)c(F)c1F)c1ccc(OCC2CC2)cn1 [(R)-4-(1-(5-(cyclopropylmethoxy)pyridin-2-yl)propoxy)-2,3-difluoro-N-((6-((2-(pyrrolidin-1-yl)ethyl)amino)pyridin-3-yl)sulfonyl)benzamide]
- IC50 (hACSL5 [1]): > 500 nM
- IC50 (hACSL5 [2]): < 100 nM

Compound: CC[C@@H](Oc1ccc(C(=O)NS(=O)(=O)C(C)(C)CN(C)C)c(F)c1F)c1ccc(OCC2CC2)cn1 [(R)-4-(1-(5-(cyclopropylmethoxy)pyridin-2-yl)propoxy)-N-((1-(dimethylamino)-2-methylpropan-2-yl)sulfonyl)-2,3-difluorobenzamide]
- IC50 (hACSL5 [1]): 100 to 500 nM
- IC50 (hACSL5 [2]): 100 to 500 nM

Compound: CC[C@@H](Oc1ccc(C(=O)NS(=O)(=O)c2ccc(OCCN(C)C)cc2)cc1C(F)(F)F)c1ccc(OCC2CC2)cn1 [(R)-4-(1-(5-(cyclopropylmethoxy)pyridin-2-yl)propoxy)-N-((4-(2-(dimethylamino)ethoxy)phenyl)sulfonyl)-3-(trifluoromethyl)benzamide]
- IC50 (hACSL5 [1]): 100 to 500 nM
- IC50 (hACSL5 [2]): < 100 nM

Compound: CC[C@@H](Oc1ccc(C(=O)NS(=O)(=O)N2CCC(OCCN(C)C)CC2)c(F)c1F)c1ccc(OCC2CC2)cn1 [(R)-4-(1-(5-(cyclopropylmethoxy)pyridin-2-yl)propoxy)-N-((4-(2-(dimethylamino)ethoxy)piperidin-1-yl)sulfonyl)-2,3-difluorobenzamide]
- IC50 (hACSL5 [1]): 100 to 500 nM
- IC50 (hACSL5 [2]): < 100 nM

Compound: CC[C@@H](Oc1ccc(C(=O)NS(=O)(=O)c2ccc(OC3CCN(CC(F)F)CC3)cc2)c(F)c1F)c1ccc(OCC2CC2)cn1 [(R)-4-(1-(5-(cyclopropylmethoxy)pyridin-2-yl)propoxy)-N-((4-((1-(2,2-difluoroethyl)piperidin-4-yl)oxy)phenyl)sulfonyl)-2,3-difluorobenzamide]
- IC50 (hACSL5 [1]): 100 to 500 nM
- IC50 (hACSL5 [2]): < 100 nM

Compound: CC[C@@H](Oc1ccc(C(=O)NS(=O)(=O)c2ccc(OC3CCN(CC4CC4)CC3)cc2)c(F)c1F)c1ccc(OCC2CC2)cn1 [(R)-4-(1-(5-(cyclopropylmethoxy)pyridin-2-yl)propoxy)-N-((4-((1-(cyclopropylmethyl)piperidin-4-yl)oxy)phenyl)sulfonyl)-2,3-difluorobenzamide]
- IC50 (hACSL5 [1]): < 100 nM
- IC50 (hACSL5 [2]): < 100 nM

Compound: CC[C@@H](Oc1ccc(C(=O)NS(=O)(=O)N2CCC(OC3CCN(CC4CC4)CC3)CC2)c(F)c1F)c1ccc(OCC2CC2)cn1 [(R)-4-(1-(5-(cyclopropylmethoxy)pyridin-2-yl)propoxy)-N-((4-((1-(cyclopropylmethyl)piperidin-4-yl)oxy)piperidin-1-yl)sulfonyl)-2,3-difluorobenzamide]
- IC50 (hACSL5 [1]): 100 to 500 nM
- IC50 (hACSL5 [2]): < 100 nM

Compound: CC[C@@H](Oc1ccc(C(=O)NS(=O)(=O)c2ccc(OC3CCN(CC)CC3)cc2)c(F)c1F)c1ccc(OCC2CC2)cn1 [(R)-4-(1-(5-(cyclopropylmethoxy)pyridin-2-yl)propoxy)-N-((4-((1-ethylpiperidin-4-yl)oxy)phenyl)sulfonyl)-2,3-difluorobenzamide]
- IC50 (hACSL5 [1]): < 100 nM
- IC50 (hACSL5 [2]): < 100 nM

Compound: CC[C@@H](Oc1ccc(C(=O)NS(=O)(=O)N2CCC(OC3CCN(C)CC3)CC2)cc1C(F)(F)F)c1ccc(OCC2CC2)cn1 [(R)-4-(1-(5-(cyclopropylmethoxy)pyridin-2-yl)propoxy)-N-((4-((1-methylpiperidin-4-yl)oxy)piperidin-1-yl)sulfonyl)-3-(trifluoromethyl)benzamide]
- IC50 (hACSL5 [1]): < 100 nM
- IC50 (hACSL5 [2]): < 100 nM

Compound: CC[C@@H](Oc1ccc(C(=O)NS(=O)(=O)N2CCC(CN3CCN(CC)CC3)CC2)c(F)c1F)c1ccc(OCC2CC2)cn1 [(R)-4-(1-(5-(cyclopropylmethoxy)pyridin-2-yl)propoxy)-N-((4-((4-ethylpiperazin-1-yl)methyl)piperidin-1-yl)sulfonyl)-2,3-difluorobenzamide]
- IC50 (hACSL5 [1]): > 500 nM
- IC50 (hACSL5 [2]): < 100 nM

Compound: CC[C@@H](Oc1ccc(C(=O)NS(=O)(=O)N2CCN(CC3CC3)CC2)c(F)c1F)c1ccc(OCC2CC2)cn1 [(R)-4-(1-(5-(cyclopropylmethoxy)pyridin-2-yl)propoxy)-N-((4-(cyclopropylmethyl)piperazin-1-yl)sulfonyl)-2,3-difluorobenzamide]
- IC50 (hACSL5 [1]): 100 to 500 nM
- IC50 (hACSL5 [2]): < 100 nM

Compound: CC[C@@H](Oc1ccc(C(=O)NS(=O)(=O)N2CCN(C3CC3)CC2)c(F)c1F)c1ccc(OCC2CC2)cn1 [(R)-4-(1-(5-(cyclopropylmethoxy)pyridin-2-yl)propoxy)-N-((4-cyclopropylpiperazin-1-yl)sulfonyl)-2,3-difluorobenzamide]
- IC50 (hACSL5 [1]): < 100 nM
- IC50 (hACSL5 [2]): < 100 nM

Compound: CC[C@@H](Oc1ccc(C(=O)NS(=O)(=O)N2CCN(CC)CC2)c(F)c1F)c1ccc(OCC2CC2)cn1 [(R)-4-(1-(5-(cyclopropylmethoxy)pyridin-2-yl)propoxy)-N-((4-ethylpiperazin-1-yl)sulfonyl)-2,3-difluorobenzamide]
- IC50 (hACSL5 [1]): < 100 nM
- IC50 (hACSL5 [2]): < 100 nM

Compound: CC[C@@H](Oc1ccc(C(=O)NS(=O)(=O)N2CCN(CC)CC2)cc1C(F)(F)F)c1ccc(OCC2CC2)cn1 [(R)-4-(1-(5-(cyclopropylmethoxy)pyridin-2-yl)propoxy)-N-((4-ethylpiperazin-1-yl)sulfonyl)-3-(trifluoromethyl)benzamide]
- IC50 (hACSL5 [1]): < 100 nM
- IC50 (hACSL5 [2]): < 100 nM

Compound: CC[C@@H](Oc1ccc(C(=O)NS(=O)(=O)N2CCN(C)CC2)cc1C(F)(F)F)c1ccc(OCC2CC2)cn1 [(R)-4-(1-(5-(cyclopropylmethoxy)pyridin-2-yl)propoxy)-N-((4-methylpiperazin-1-yl)sulfonyl)-3-(trifluoromethyl)benzamide]
- IC50 (hACSL5 [1]): < 100 nM
- IC50 (hACSL5 [2]): < 100 nM

Compound: CC[C@@H](Oc1ccc(C(=O)NS(=O)(=O)N2CC3(CC(OCCN(C)C)C3)C2)c(F)c1F)c1ccc(OCC2CC2)cn1 [(R)-4-(1-(5-(cyclopropylmethoxy)pyridin-2-yl)propoxy)-N-((6-(2-(dimethylamino)ethoxy)-2-azaspiro[3.3]heptan-2-yl)sulfonyl)-2,3-difluorobenzamide]
- IC50 (hACSL5 [1]): > 500 nM
- IC50 (hACSL5 [2]): 100 to 500 nM

Compound: CC[C@@H](Oc1ccc(C(=O)NS(=O)(=O)c2ccc(CN3CCN(CC)CC3)nc2)c(F)c1F)c1ccc(OCC2CC2)cn1 [(R)-4-(1-(5-(cyclopropylmethoxy)pyridin-2-yl)propoxy)-N-((6-((4-ethylpiperazin-1-yl)methyl)pyridin-3-yl)sulfonyl)-2,3-difluorobenzamide]
- IC50 (hACSL5 [1]): > 500 nM
- IC50 (hACSL5 [2]): < 100 nM

Compound: CC[C@@H](Oc1ccc(C(=O)NS(=O)(=O)C(C)(C)CN(C)C)c(F)c1F)c1ccc(Oc2ccccn2)cn1 [(R)-N-((1-(dimethylamino)-2-methylpropan-2-yl)sulfonyl)-2,3-difluoro-4-(1-(5-(pyridin-2-yloxy)pyridin-2-yl)propoxy)benzamide]
- IC50 (hACSL5 [1]): < 100 nM
- IC50 (hACSL5 [2]): < 100 nM

Compound: CC[C@@H](Oc1ccc(C(=O)NS(=O)(=O)c2ccc(OCCn3ccnc3)cc2)c(F)c1F)c1ccc(OCCOC)cn1 [(R)-N-((4-(2-(1H-imidazol-1-yl)ethoxy)phenyl)sulfonyl)-2,3-difluoro-4-(1-(5-(2-methoxyethoxy)pyridin-2-yl)propoxy)benzamide]
- IC50 (hACSL5 [1]): > 500 nM
- IC50 (hACSL5 [2]): < 100 nM
